Laboratory results: patent US20250270191A1, “QUINOLONE BCL6 BIFUNCTIONAL DEGRADERS” (Treeline Biosciences, Inc., priority 2022, published 2025)

Target: T1, Human BCL6 protein (N-terminal HiBiT tagged BCL6 in HT1080 cells) (Homo sapiens, UniProt P41182+Q96SW2)
T1 construct: Human BCL6 protein coding open reading frame; expressed in transfected cells; host or cells: HT1080 (ATCC CCL-121), stably transduced with lentivirus pLV-UBC-N-HiBiT-BCL6-PGK-puro
Experiment: HiBiT based BCL6 degradation assay
Format: cell-based
Details: HT1080 cells expressing N-terminal HiBiT tagged BCL6; 5 hours incubation; BCL6 degradation normalized with DMSO control
In short: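 HT1080 cells stably expressing N-terminal HiBiT-BCL6 were treated with compound dilution series for 5 h at 37° C. in RPMI 1640 with 10% FBS. HiBiT lytic luminescence read after 15 min; degradation normalized to DMSO, with curves fitted by four-parameter logistic model.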

| Structure (SMILES) | Ymin (5 hr) |
| --- | --- |
| CNC(=O)COc1cc2cc(Nc3nc(N4CCC[C@@H](COc5ccc6c(C7CCC(=O)NC7=O)nn(C)c6c5)C4)ncc3Cl)ccc2n(C)c1=O (stereo partly drawn) [Compound 302b, 2-((6-((5-chloro-2-((3R)-3-(((3-(2,6-dioxopiperidin-3-yl)-1-methyl-1H-indazol-6-yl)oxy)methyl)piperidin-1-yl)pyrimidin-4-yl)amino)-1-methyl-2-oxo-1,2-dihydroquinolin-3-yl)oxy)-N-methylacetamide] | ++ (50% < Ymin ≤ 70%) |
| CNC(=O)COc1cc2cc(Nc3nc(NC[C@@H]4CCCN(c5cccc6c(C7CCC(=O)NC7=O)nn(C)c56)C4)ncc3Cl)ccc2n(C)c1=O (stereo partly drawn) [Compound 303a, 2-((6-((5-chloro-2-((((3S)-1-(3-(2,6-dioxopiperidin-3-yl)-1-methyl-1H-indazol-7-yl)piperidin-3-yl)methyl)amino)pyrimidin-4-yl)amino)-1-methyl-2-oxo-1,2-dihydroquinolin-3-yl)oxy)-N-methylacetamide] | ++ (50% < Ymin ≤ 70%) |
| CNC(=O)COc1cc2cc(Nc3nc(NC[C@H]4CCCN(c5cccc6c(C7CCC(=O)NC7=O)nn(C)c56)C4)ncc3Cl)ccc2n(C)c1=O (stereo partly drawn) [Compound 303b, 2-((6-((5-chloro-2-((((3R)-1-(3-(2,6-dioxopiperidin-3-yl)-1-methyl-1H-indazol-7-yl)piperidin-3-yl)methyl)amino)pyrimidin-4-yl)amino)-1-methyl-2-oxo-1,2-dihydroquinolin-3-yl)oxy)-N-methylacetamide] | ++ (50% < Ymin ≤ 70%) |
| CNC(=O)COc1cc2cc(Nc3nc(NC[C@H]4CC[C@@H](Nc5cccc6c(C7CCC(=O)NC7=O)nn(C)c56)CC4)ncc3Cl)ccc2n(C)c1=O (stereo partly drawn) [Compound 304a, 2-((6-((5-chloro-2-((((1s,4s)-4-((3-(2,6-dioxopiperidin-3-yl)-1-methyl-1H-indazol-7-yl)amino)cyclohexyl)methyl)amino)pyrimidin-4-yl)amino)-1-methyl-2-oxo-1,2-dihydroquinolin-3-yl)oxy)-N-methylacetamide] | ++ (50% < Ymin ≤ 70%) |
| CNC(=O)COc1cc2cc(Nc3nc(NC[C@H]4CC[C@H](Nc5cccc6c(C7CCC(=O)NC7=O)nn(C)c56)CC4)ncc3Cl)ccc2n(C)c1=O (stereo partly drawn) [Compound 304b, 2-((6-((5-chloro-2-((((1r,4r)-4-((3-(2,6-dioxopiperidin-3-yl)-1-methyl-1H-indazol-7-yl)amino)cyclohexyl)methyl)amino)pyrimidin-4-yl)amino)-1-methyl-2-oxo-1,2-dihydroquinolin-3-yl)oxy)-N-methylacetamide] | ++ (50% < Ymin ≤ 70%) |
| CNC(=O)COc1cc2cc(Nc3nc(N4CCN(C[C@H]5CCN(c6cccc7c(C8CCC(=O)NC8=O)nn(C)c67)C5)CC4)ncc3Cl)ccc2n(C)c1=O (stereo partly drawn) [Compound 305a, 2-((6-((5-chloro-2-(4-(((3R)-1-(3-(2,6-dioxopiperidin-3-yl)-1-methyl-1H-indazol-7-yl)pyrrolidin-3-yl)methyl)piperazin-1-yl)pyrimidin-4-yl)amino)-1-methyl-2-oxo-1,2-dihydroquinolin-3-yl)oxy)-N-methylacetamide] | +++ (25% < Ymin ≤ 50%) |
| CNC(=O)COc1cc2cc(Nc3nc(N4CCN(C[C@@H]5CCN(c6cccc7c(C8CCC(=O)NC8=O)nn(C)c67)C5)CC4)ncc3Cl)ccc2n(C)c1=O (stereo partly drawn) [Compound 305b, 2-((6-((5-chloro-2-(4-(((3S)-1-(3-(2,6-dioxopiperidin-3-yl)-1-methyl-1H-indazol-7-yl)pyrrolidin-3-yl)methyl)piperazin-1-yl)pyrimidin-4-yl)amino)-1-methyl-2-oxo-1,2-dihydroquinolin-3-yl)oxy)-N-methylacetamide] | +++ (25% < Ymin ≤ 50%) |
| CNC(=O)COc1cc2cc(Nc3nc(N4CCN(C[C@H]5CCN(c6ccc7c(C8CCC(=O)NC8=O)nn(C)c7c6)C5)CC4)ncc3Cl)ccc2n(C)c1=O (stereo partly drawn) [Compound 306a, 2-((6-((5-chloro-2-(4-(((3R)-1-(3-(2,6-dioxopiperidin-3-yl)-1-methyl-1H-indazol-6-yl)pyrrolidin-3-yl)methyl)piperazin-1-yl)pyrimidin-4-yl)amino)-1-methyl-2-oxo-1,2-dihydroquinolin-3-yl)oxy)-N-methylacetamide] | +++ (25% < Ymin ≤ 50%) |
| CNC(=O)COc1cc2cc(Nc3nc(N4CCN(C[C@@H]5CCN(c6ccc7c(C8CCC(=O)NC8=O)nn(C)c7c6)C5)CC4)ncc3Cl)ccc2n(C)c1=O (stereo partly drawn) [Compound 306b, 2-((6-((5-chloro-2-(4-(((3S)-1-(3-(2,6-dioxopiperidin-3-yl)-1-methyl-1H-indazol-6-yl)pyrrolidin-3-yl)methyl)piperazin-1-yl)pyrimidin-4-yl)amino)-1-methyl-2-oxo-1,2-dihydroquinolin-3-yl)oxy)-N-methylacetamide] | ++++ (Ymin ≤ 25%) |

The next lines start with the values.

| Ymin (5 hr) | Structure (SMILES) |
| --- | --- |
| ++++ (Ymin ≤ 25%) | CNC(=O)COc1cc2cc(Nc3nc(N4CCN(CC5CCN(c6cccc7c(C8CCC(=O)NC8=O)nn(C)c67)CC5)[C@H](C)C4)ncc3Cl)ccc2n(C)c1=O (stereo partly drawn) [Compound 308a, 2-((6-((5-chloro-2-((3R)-4-((1-(3-(2,6-dioxopiperidin-3-yl)-1-methyl-1H-indazol-7-yl)piperidin-4-yl)methyl)-3-methylpiperazin-1-yl)pyrimidin-4-yl)amino)-1-methyl-2-oxo-1,2-dihydroquinolin-3-yl)oxy)-N-methylacetamide] |
| ++++ (Ymin ≤ 25%) | CNC(=O)COc1cc2cc(Nc3nc(N4CCN(CC5CCN(c6cccc7c(C8CCC(=O)NC8=O)nn(C)c67)CC5)[C@@H](C)C4)ncc3Cl)ccc2n(C)c1=O (stereo partly drawn) [Compound 308b, 2-((6-((5-chloro-2-((3S)-4-((1-(3-(2,6-dioxopiperidin-3-yl)-1-methyl-1H-indazol-7-yl)piperidin-4-yl)methyl)-3-methylpiperazin-1-yl)pyrimidin-4-yl)amino)-1-methyl-2-oxo-1,2-dihydroquinolin-3-yl)oxy)-N-methylacetamide] |
| +++ (25% < Ymin ≤ 50%) | CNC(=O)COc1cc2cc(Nc3nc(N4CCN(CC5CCN(c6ccc7c(C8CCC(=O)NC8=O)nn(C)c7c6)CC5)[C@H](C)C4)ncc3Cl)ccc2n(C)c1=O (stereo partly drawn) [Compound 309a, 2-((6-((5-chloro-2-((3R)-4-((1-(3-(2,6-dioxopiperidin-3-yl)-1-methyl-1H-indazol-6-yl)piperidin-4-yl)methyl)-3-methylpiperazin-1-yl)pyrimidin-4-yl)amino)-1-methyl-2-oxo-1,2-dihydroquinolin-3-yl)oxy)-N-methylacetamide] |
| +++ (25% < Ymin ≤ 50%) | CNC(=O)COc1cc2cc(Nc3nc(N4CCN(CC5CCN(c6ccc7c(C8CCC(=O)NC8=O)nn(C)c7c6)CC5)[C@@H](C)C4)ncc3Cl)ccc2n(C)c1=O (stereo partly drawn) [Compound 309b, 2-((6-((5-chloro-2-((3S)-4-((1-(3-(2,6-dioxopiperidin-3-yl)-1-methyl-1H-indazol-6-yl)piperidin-4-yl)methyl)-3-methylpiperazin-1-yl)pyrimidin-4-yl)amino)-1-methyl-2-oxo-1,2-dihydroquinolin-3-yl)oxy)-N-methylacetamide] |
| +++ (25% < Ymin ≤ 50%) | CNC(=O)COc1cc2cc(Nc3nc(N4CCC(CC5CN(c6cccc7c(C8CCC(=O)NC8=O)nn(C)c67)C5)CC4)ncc3Cl)ccc2n(C)c1=O (stereo not drawn) [Compound 310, 2-((6-((5-chloro-2-(4-((1-(3-(2,6-dioxopiperidin-3-yl)-1-methyl-1H-indazol-7-yl)azetidin-3-yl)methyl)piperidin-1-yl)pyrimidin-4-yl)amino)-1-methyl-2-oxo-1,2-dihydroquinolin-3-yl)oxy)-N-methylacetamide] |
| ++ (50% < Ymin ≤ 70%) | CNC(=O)COc1cc2cc(Nc3nc(N4CCN(CC5CCC6(CC5)CN(c5cccc7c(C8CCC(=O)NC8=O)nn(C)c57)C6)CC4)ncc3Cl)ccc2n(C(C)C)c1=O (stereo not drawn) [Compound 311, 2-((6-((5-chloro-2-(4-((2-(3-(2,6-dioxopiperidin-3-yl)-1-methyl-1H-indazol-7-yl)-2-azaspiro[3.5]nonan-7-yl)methyl)piperazin-1-yl)pyrimidin-4-yl)amino)-1-isopropyl-2-oxo-1,2-dihydroquinolin-3-yl)oxy)-N-methylacetamide] |
| ++ (50% < Ymin ≤ 70%) | CNC(=O)COc1cc2cc(Nc3nc(N4CCC[C@H](CN(C)c5ccc6c(C7CCC(=O)NC7=O)nn(C)c6c5)C4)ncc3Cl)ccc2n(C)c1=O (stereo partly drawn) [Compound 312a, 2-((6-((5-chloro-2-((3R)-3-(((3-(2,6-dioxopiperidin-3-yl)-1-methyl-1H-indazol-6-yl)(methyl)amino)methyl)piperidin-1-yl)pyrimidin-4-yl)amino)-1-methyl-2-oxo-1,2-dihydroquinolin-3-yl)oxy)-N-methylacetamide] |
| ++ (50% < Ymin ≤ 70%) | CNC(=O)COc1cc2cc(Nc3nc(N4CC[C@H](COc5ccc6c(C7CCC(=O)NC7=O)nn(C)c6c5)C4)ncc3Cl)ccc2n(C)c1=O (stereo partly drawn) [Compound 313a, 2-((6-((5-chloro-2-((3S)-3-(((3-(2,6-dioxopiperidin-3-yl)-1-methyl-1H-indazol-6-yl)oxy)methyl)pyrrolidin-1-yl)pyrimidin-4-yl)amino)-1-methyl-2-oxo-1,2-dihydroquinolin-3-yl)oxy)-N-methylacetamide] |
| ++ (50% < Ymin ≤ 70%) | CNC(=O)COc1cc2cc(Nc3nc(N4CCC(CN5CCN(C(=O)c6cccc(C7CCC(=O)NC7=O)c6)CC5)CC4)ncc3Cl)ccc2n(C)c1=O (stereo not drawn) [Compound 314, 2-((6-((5-chloro-2-(4-((4-(3-(2,6-dioxopiperidin-3-yl)benzoyl)piperazin-1-yl)methyl)piperidin-1-yl)pyrimidin-4-yl)amino)-1-methyl-2-oxo-1,2-dihydroquinolin-3-yl)oxy)-N-methylacetamide] |
